Laboratory results: patent US10441608B2, “Continuous methods for treating liquids and manufacturing certain constituents (e.g., nanoparticles) in liquids, apparatuses and nanoparticles and nanoparticle/liquid solution(s) resulting therefrom” (Clene Nanomedicine, Inc., priority 2009, dated 2019)
Converted amounts (≈) assume the structure as drawn. “And” between values parts separate entries of the source, which are not always exact repeats. Identical values can stand only once. Like-named read-outs stand apart in the source and are kept apart here.

Key:
[1] = system: Gram-Positive and Gram Negative bacteria; assay type: cell-based
[2] = system: Staphylococcus aureus ATCC-29213; test: Broth microdilution MIC/MID 50 against Staphylococcus aureus; assay type: cell-based
Text: The clinical and laboratory standards institute Broth Microdilution Methodology was employed, however, the growth medium used was an “RPMI” medium. Additionally, the methods for dilution and antimicrobial susceptibility tests for bacteria that grow aerobically were also followed with the noted exception of testing with alternative media (CLSI document […], CLSI, Wayne, Pa.). […] Under the column, “Isolate” identification beginning with either “GP” or “GN” occur. The “GP” corresponds to Gram-Positive bacteria and the “GN” corresponds to “Gram Negative” bacteria. Each of the organisms are specifically listed after the isolate identification.

C[C@H]1COc2c(N3CCN(C)CC3)c(F)cc3c(=O)c(C(=O)O)cn1c23 [Levofloxacin]
MID/MIC (amount of antibiotic) ([1]; GP33 EMRSA16 Staphylococcus aureus (MRSA), SSCmec type 2): >8 mg/L
MID/MIC (amount of antibiotic) ([1]; GP34 EMRSA1 Staphylococcus aureus (MRSA), SSCmec type 3): 0.12 mg/L
MID/MIC (amount of antibiotic) ([1]; GP35 EMRSA15 Staphylococcus aureus (MRSA), SSCmec type 4): 0.06 mg/L
MID/MIC (amount of antibiotic) ([1]; GP36 HT2001254 Staphylococcus aureus (MRSA), PVL positive): 0.12 mg/L
MID/MIC (amount of antibiotic) ([1]; GP37 Streptococcus agalactiae, antibiotic-susceptible clinical isolate): 1 mg/L
MID/MIC (amount of antibiotic) ([1]; GP38 Streptococcus agalactiae, macrolide-resistant clinical isolate): 1 mg/L
MID/MIC (amount of antibiotic) ([1]; GP39 Group C Streptococcus, antibiotic-susceptible clinical isolate): 0.5 mg/L
MID/MIC (amount of antibiotic) ([1]; GP41 Group G Streptococcus, antibiotic-susceptible clinical isolate): 0.25 mg/L
MID/MIC (amount of antibiotic) ([1]; GP42 Group G Streptococcus, macrolide-resistant clinical isolate): 0.25 mg/L
MID/MIC (amount of antibiotic) ([1]; GP43 Streptococcus mitis, antibiotic-susceptible clinical isolate): 1 mg/L
MID/MIC (amount of antibiotic) ([1]; GP46 Streptococcus constellatus, macrolide-resistant clinical isolate): 1 mg/L
MID/MIC (amount of antibiotic) ([1]; GP47 Streptococcus oralis, antibiotic-susceptible clinical isolate): 1 mg/L
MID/MIC (amount of antibiotic) ([1]; GP48 Streptococcus oralis, macrolide-resistant clinical isolate): 1 mg/L
MID/MIC (amount of antibiotic) ([1]; GP49 Streptococcus bovis, antibiotic-susceptible clinical isolate): 1 mg/L
MID/MIC (amount of antibiotic) ([1]; GP50 Streptococcus bovis, macrolide-resistant clinical isolate): 0.5 mg/L and 1 mg/L
MID/MIC (amount of antibiotic) ([1]; GP51 Streptococcus sanguis, antibiotic-susceptible clinical isolate): 1 mg/L and 0.5 mg/L
MID/MIC (amount of antibiotic) ([1]; GP52 Streptococcus sanguis, macrolide-resistant clinical isolate): 1 mg/L
MID/MIC (amount of antibiotic) ([1]; GP53 Clostridium perfringens, antibiotic-susceptible clinical isolate, supplemented with 2% serum and 1 μg/mL Vit K): 0.015 mg/L
MID/MIC (amount of antibiotic) ([1]; GP55 Group C Streptococcus, antibiotic-resistant clinical isolate): 0.5 mg/L
MIC/MID 50 ([1]; Listeria monocytogenes - antibiotic-susceptible clinical isolate): 0.50 mg/L (≈ 1.38 µM)
MIC/MID 50 ([1]; Moraxella catarrhalis β-lactamase positive clinical isolate (first of two lines so named)): 0.06 mg/L (≈ 0.166 µM)
MIC/MID 50 ([1]; Moraxella catarrhalis β-lactamase positive clinical isolate (second of two lines so named)): 0.06 mg/L (≈ 0.166 µM)
MIC/MID 50 ([1]; Morganella morganii - multi-drug resistant clinical isolate): 1.00 mg/L (≈ 2.77 µM)
MID/MIC (amount of antibiotic) ([1]; P8119035 Citrobacter freundii, resistant clinical isolate): 8 mg/L
MIC/MID 50 ([1]; Proteus mirabilis - antibiotic-susceptible clinical isolate): 0.06 mg/L (≈ 0.166 µM)
MIC/MID 50 ([1]; Proteus mirabilis - multi-drug resistant clinical isolate): 2.00 mg/L (≈ 5.53 µM)
MIC/MID 50 ([1]; Staphylococcus aureus - multi-drug-resistant clinical isolate): 4.00 mg/L (≈ 11.1 µM)
MIC/MID 50 ([1]; Staphylococcus aureus - teicoplanin-intermediate clinical isolate): 4.00 mg/L (≈ 11.1 µM)
MIC/MID 50 ([1]; Staphylococcus aureus ATCC 25923 - antibiotic-susceptible control strain): 0.12 mg/L (≈ 0.332 µM)
MIC/MID 50 ([1]; Staphylococcus aureus ATCC 43300 - methicillin-resistant control strain): 0.25 mg/L (≈ 0.692 µM)
MIC/MID 50 ([1]; Staphylococcus epidermidis antibiotic susceptible clinical isolate): 0.12 mg/L (≈ 0.332 µM)
MIC/MID 50 ([1]; Staphylococcus epidermidis methicillin-resistant clinical isolate): 0.25 mg/L (≈ 0.692 µM)
MIC/MID 50 ([1]; Staphylococcus haemolyticus - antibiotic susceptible clinical isolate): 0.50 mg/L (≈ 1.38 µM)
MIC/MID 50 ([1]; Staphylococcus saprophyticus - antibiotic susceptible clinical isolate): 0.50 mg/L (≈ 1.38 µM)
MIC/MID 50 ([1]; Stenotrophomonas maltophila - antibiotic-resistant clinical isolate): 1.00 mg/L (≈ 2.77 µM)
MIC/MID 50 ([1]; Stenotrophomonas maltophilia - antibiotic-susceptible clinical isolate): 0.25 mg/L (≈ 0.692 µM)
MIC/MID 50 ([1]; Streptococcus agalactiae - antibiotic-susceptible clinical isolate): 1.00 mg/L (≈ 2.77 µM)
MIC/MID 50 ([1]; Streptococcus agalactiae - macrolide-resistant clinical isolate): 1.00 mg/L (≈ 2.77 µM)
MIC/MID 50 ([1]; Streptococcus bovis - antibiotic-susceptible clinical isolate): 1.00 mg/L (≈ 2.77 µM)
MIC/MID 50 ([1]; Streptococcus bovis - macrolide-resistant clinical isolate): 1.00 mg/L (≈ 2.77 µM)
MIC/MID 50 ([1]; Streptococcus mitis - macrolide-resistant clinical isolate): 1.00 mg/L (≈ 2.77 µM)
MIC/MID 50 ([1]; Streptococcus oralis - antibiotic-susceptible clinical isolate): 1.00 mg/L (≈ 2.77 µM)
MIC/MID 50 ([1]; Streptococcus oralis - macrolide-resistant clinical isolate): 1.00 mg/L (≈ 2.77 µM)
MIC/MID 50 ([1]; Streptococcus pneumoniae - ATCC 49619 antibiotic-susceptible control strain): 1.00 mg/L (≈ 2.77 µM)
MIC/MID 50 ([1]; Streptococcus pneumoniae - multi-drug resistant clinical isolate): 1.00 mg/L (≈ 2.77 µM)
MIC/MID 50 ([1]; Streptococcus pneumoniae - pencillin-susceptible clinical isolate): 1.00 mg/L (≈ 2.77 µM)
MIC/MID 50 ([1]; Streptococcus pneumoniae - penicillin-intermediate clinical isolate): 0.50 mg/L (≈ 1.38 µM)
MIC/MID 50 ([1]; Streptococcus pneumoniae - penicillin-resistant clinical isolate): 0.50 mg/L (≈ 1.38 µM)
MIC/MID 50 ([1]; Streptococcus pyogenes - Macrolide (MLS) resistant clinical isolate): 0.50 mg/L (≈ 1.38 µM)
MIC/MID 50 ([1]; Streptococcus sanguis - antibiotic-susceptible clinical isolate): 0.50 mg/L (≈ 1.38 µM)
MIC/MID 50 ([1]; Streptococcus sanguis - macrolide-resistant clinical isolate): 1.00 mg/L (≈ 2.77 µM)
MID/MIC (amount of antibiotic) ([2]; GP01 Staphylococcus aureus ATCC 29213, antibiotic-susceptible control strain): 0.12 mg/L
MIC/MID 50 ([2]; Staphylococcus aureus ATCC 29213 - antibiotic-susceptible control strain): 0.12 mg/L (≈ 0.332 µM)
